Test results taken from PubChem BioAssay AID2060327 (Molecular Pharmacology Branch, DTP, NCI, 2025).
pIC50: −log10 of the molar value. Where “and” joins values, the source holds several entries; their conditions need not be identical. Identical values can stand only once.

Tested on: PC-3 multi-cell spheroids, viability
Test: Anticancer human tumor PC-3 cell line growth inhibition [IpAb];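 also: spheroids exposed to compounds for 7 days before readout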;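 as to viability, T/C: 100% = DMSO vehicle control wells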
Settings: for viability, T/C: stronger effect = lower value
Summary of the method: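 Multi-cell spheroids of 60% tumour cells, 25% HUVEC and 15% MSC in ultra-low-attachment U-bottom wells, treated with agents combined with ipatasertib or abemaciclib. Half-log ranges top out near clinical Cmax, or 10 microM when Cmax is unknown.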

[1] = curve of first compound, second compound 0.1 µM
[2] = curve of first compound, second compound 0.316 µM
[3] = curve of first compound, second compound 1 µM
[4] = second compound 0.1 µM, first compound 0.000316 µM
[5] = second compound 0.1 µM, first compound 0.001 µM
[6] = second compound 0.1 µM, first compound 0.00316 µM
[7] = second compound 0.1 µM, first compound 0.01 µM
[8] = second compound 0.1 µM, first compound 0.0316 µM
[9] = second compound 0.1 µM, first compound 0.1 µM
[10] = second compound 0.316 µM, first compound 0.000316 µM
[11] = second compound 0.316 µM, first compound 0.001 µM
[12] = second compound 0.316 µM, first compound 0.00316 µM
[13] = second compound 0.316 µM, first compound 0.01 µM
[14] = second compound 0.316 µM, first compound 0.0316 µM
[15] = second compound 0.316 µM, first compound 0.1 µM
[16] = second compound 1 µM, first compound 0.000316 µM
[17] = second compound 1 µM, first compound 0.001 µM
[18] = second compound 1 µM, first compound 0.00316 µM
[19] = second compound 1 µM, first compound 0.01 µM
[20] = second compound 1 µM, first compound 0.0316 µM
[21] = second compound 1 µM, first compound 0.1 µM
[22] = curve of first compound, second compound 3.16 µM
[23] = curve of first compound, second compound 10 µM
[24] = second compound 3.16 µM, first compound 0.0316 µM
[25] = second compound 3.16 µM, first compound 0.1 µM
[26] = second compound 10 µM, first compound 0.0316 µM
[27] = second compound 10 µM, first compound 0.1 µM

## CC(C)n1nc(-c2ccc3oc(N)nc3c2)c2c(N)ncnc21 + CCN1CCN(Cc2ccc(Nc3ncc(F)c(-c4cc(F)c5nc(C)n(C(C)C)c5c4)n3)nc2)CC1
Curve of first compound, second compound 0.01 µM
  pIC50: 8.70
Curve of first compound, second compound 0.0316 µM
  pIC50: 8.68
[1]
  pIC50: 8.71
[2]
  pIC50: 8.74
[3]
  pIC50: 8.94
Second compound 0.01 µM, first compound 0.000316 µM
  viability, T/C: 81.9%
Second compound 0.01 µM, first compound 0.001 µM
  viability, T/C: 56.2%
Second compound 0.01 µM, first compound 0.00316 µM
  viability, T/C: 48.6%
Second compound 0.01 µM, first compound 0.01 µM
  viability, T/C: 25.9%
Second compound 0.01 µM, first compound 0.0316 µM
  viability, T/C: 11%
Second compound 0.01 µM, first compound 0.1 µM
  viability, T/C: 10%
Second compound 0.0316 µM, first compound 0.000316 µM
  viability, T/C: 55.2%
Second compound 0.0316 µM, first compound 0.001 µM
  viability, T/C: 55.7%
Second compound 0.0316 µM, first compound 0.00316 µM
  viability, T/C: 47%
Second compound 0.0316 µM, first compound 0.01 µM
  viability, T/C: 18.6%
Second compound 0.0316 µM, first compound 0.0316 µM
  viability, T/C: 11.7%
Second compound 0.0316 µM, first compound 0.1 µM
  viability, T/C: 9.52%
[4]
  viability, T/C: 59.1%
[5]
  viability, T/C: 54.8%
[6]
  viability, T/C: 45.7%
[7]
  viability, T/C: 20%
[8]
  viability, T/C: 11.2%
[9]
  viability, T/C: 9.73%
[10]
  viability, T/C: 65.3%
[11]
  viability, T/C: 61.8%
[12]
  viability, T/C: 39.2%
[13]
  viability, T/C: 20.1%
[14]
  viability, T/C: 13.7%
[15]
  viability, T/C: 10.8%
[16]
  viability, T/C: 55.4%
[17]
  viability, T/C: 54.3%
[18]
  viability, T/C: 35.3%
[19]
  viability, T/C: 24.1%
[20]
  viability, T/C: 15.7%
[21]
  viability, T/C: 13.8%

## Cn1ncc(Cl)c1-c1cc(C(=O)NC(CN)Cc2cccc(F)c2)sc1Cl (configuration not stated) + CC(C)NCC(C(=O)N1CCN(c2ncnc3c2C(C)CC3O)CC1)c1ccc(Cl)cc1
[1]
  pIC50: 7.09
[2]
  pIC50: > 7.50
[3]
  pIC50: > 7.50
[22]
  pIC50: > 7.50
[23]
  pIC50: > 7.50
[8]
  viability, T/C: 59.9%
[9]
  viability, T/C: 48.8%
Second compound 0.1 µM, first compound 0.316 µM
  viability, T/C: 34.3%
Second compound 0.1 µM, first compound 1 µM
  viability, T/C: 19.8%
Second compound 0.1 µM, first compound 3.16 µM
  viability, T/C: 16.9%
Second compound 0.1 µM, first compound 10 µM
  viability, T/C: 0.15%
[14]
  viability, T/C: 35.7%
[15]
  viability, T/C: 40.3%
Second compound 0.316 µM, first compound 0.316 µM
  viability, T/C: 29.2%
Second compound 0.316 µM, first compound 1 µM
  viability, T/C: 17.7%
Second compound 0.316 µM, first compound 3.16 µM
  viability, T/C: 14.1%
Second compound 0.316 µM, first compound 10 µM
  viability, T/C: 0.17%
[20]
  viability, T/C: 24.3%
[21]
  viability, T/C: 24.5%
Second compound 1 µM, first compound 0.316 µM
  viability, T/C: 19.9%
Second compound 1 µM, first compound 1 µM
  viability, T/C: 16.4%
Second compound 1 µM, first compound 3.16 µM
  viability, T/C: 15.8%
Second compound 1 µM, first compound 10 µM
  viability, T/C: 0.14%
[24]
  viability, T/C: 15.2%
[25]
  viability, T/C: 15.8%
Second compound 3.16 µM, first compound 0.316 µM
  viability, T/C: 15.5%
Second compound 3.16 µM, first compound 1 µM
  viability, T/C: 16%
Second compound 3.16 µM, first compound 3.16 µM
  viability, T/C: 15.3%
Second compound 3.16 µM, first compound 10 µM
  viability, T/C: 0.26%
[26]
  viability, T/C: 13.6%
[27]
  viability, T/C: 14.1%
Second compound 10 µM, first compound 0.316 µM
  viability, T/C: 13.6%
Second compound 10 µM, first compound 1 µM
  viability, T/C: 14.6%
Second compound 10 µM, first compound 3.16 µM
  viability, T/C: 13.9%
Second compound 10 µM, first compound 10 µM
  viability, T/C: 0.16%

## CC1(C)CCC(CN2CCN(c3ccc(C(=O)NS(=O)(=O)c4ccc(NCC5CCOCC5)c([N+](=O)[O-])c4)c(Oc4cnc5[nH]ccc5c4)c3)CC2)=C(c2ccc(Cl)cc2)C1
Compound 0.0316 µM
  viability, T/C: 105% and 102%
Compound 0.1 µM
  viability, T/C: 107% and 108%
Compound 0.316 µM
  viability, T/C: 105% and 112%
Compound 1 µM
  viability, T/C: 107% and 108%
Compound 3.16 µM
  viability, T/C: 85.4% and 109%
Compound 10 µM
  viability, T/C: 3.66% and 4.01%
Curve of compound
  pIC50: 5.28 and 5.22

## Cn1ncnc1[C@H]1c2n[nH]c(=O)c3cc(F)cc(c23)N[C@@H]1c1ccc(F)cc1 + CC(C)NCC(C(=O)N1CCN(c2ncnc3c2C(C)CC3O)CC1)c1ccc(Cl)cc1
[1]
  pIC50: 7.88
[2]
  pIC50: > 9.50
[3]
  pIC50: > 9.50
[22]
  pIC50: > 9.50
[23]
  pIC50: > 9.50
[4]
  viability, T/C: 78.5%
[5]
  viability, T/C: 71.4%
[6]
  viability, T/C: 52.4%
[7]
  viability, T/C: 51.8%
[8]
  viability, T/C: 51.6%
[9]
  viability, T/C: 40.1%
[10]
  viability, T/C: 47.1%
[11]
  viability, T/C: 43.8%
[12]
  viability, T/C: 42.9%
[13]
  viability, T/C: 40.3%
[14]
  viability, T/C: 37.9%
[15]
  viability, T/C: 32.8%
[16]
  viability, T/C: 25.3%
[17]
  viability, T/C: 23.3%
[18]
  viability, T/C: 25.2%
[19]
  viability, T/C: 18.4%
[20]
  viability, T/C: 19.9%
[21]
  viability, T/C: 18.7%
Second compound 3.16 µM, first compound 0.000316 µM
  viability, T/C: 14.2%
Second compound 3.16 µM, first compound 0.001 µM
  viability, T/C: 14.1%
Second compound 3.16 µM, first compound 0.00316 µM
  viability, T/C: 14.7%
Second compound 3.16 µM, first compound 0.01 µM
  viability, T/C: 13.1%
[24]
  viability, T/C: 13.2%
[25]
  viability, T/C: 13.8%
Second compound 10 µM, first compound 0.000316 µM
  viability, T/C: 14.8%
Second compound 10 µM, first compound 0.001 µM
  viability, T/C: 14%
Second compound 10 µM, first compound 0.00316 µM
  viability, T/C: 13.3%
Second compound 10 µM, first compound 0.01 µM
  viability, T/C: 11%
[26]
  viability, T/C: 11.6%
[27]
  viability, T/C: 11.3%
